19 compounds from PubChem BioAssay AID330 (DTP/NCI, 2004) can be followed below.

The subject of the experiment is P388 leukemia ip, CD2F1 mice, survival T/C. As to the kind of experiment: NCI In Vivo Anticancer Drug Screen. Data for tumor model P388 Leukemia (intraperitoneal) in CD2F1 (CDF1) mice. Particulars: endpoint: median survival time, higher = longer survival. Summed up: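 Mice carrying the transplanted tumor received test compound or vehicle. Survival was recorded in each group, and the value is the treated-group measurement divided by that of the vehicle-treated control group.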

Setting [1] is: dose: 50.0 mg/kg/injection, schedule: Q04DX003 (ip), vehicle: Klucel (hydroxypropylcellulose) (HPC).
Where [2] appears, read: dose: 100.0 mg/kg/injection, schedule: Q01DX001 (ip), vehicle: saline with Tween-80.
The mark [3] stands for this setting: dose: 200.0 mg/kg/injection, schedule: Q01DX001 (ip), vehicle: saline with Tween-80.
Setting [4] is: dose: 400.0 mg/kg/injection, schedule: Q01DX001 (ip), vehicle: saline with Tween-80.
Setting [5] is: dose: 50.0 mg/kg/injection, schedule: Q01DX005 (ip), vehicle: saline with Tween-80.
[6] abbreviates: dose: 100.0 mg/kg/injection, schedule: Q01DX005 (ip), vehicle: saline with Tween-80.
[7] abbreviates: dose: 200.0 mg/kg/injection, schedule: Q01DX005 (ip), vehicle: saline with Tween-80.
[8] abbreviates: dose: 12.5 mg/kg/injection, schedule: Q01DX009 (ip), vehicle: saline.
The mark [9] stands for this setting: dose: 25.0 mg/kg/injection, schedule: Q01DX009 (ip), vehicle: saline.
Setting [10] is: dose: 50.0 mg/kg/injection, schedule: Q01DX009 (ip), vehicle: saline.
[11] abbreviates: dose: 100.0 mg/kg/injection, schedule: Q01DX009 (ip), vehicle: saline.
The mark [12] stands for this setting: dose: 50.0 mg/kg/injection, schedule: Q01DX005 (ip), vehicle: Klucel (hydroxypropylcellulose) (HPC).
Where [13] appears, read: dose: 100.0 mg/kg/injection, schedule: Q01DX005 (ip), vehicle: Klucel (hydroxypropylcellulose) (HPC).
Setting [14] is: dose: 200.0 mg/kg/injection, schedule: Q01DX005 (ip), vehicle: Klucel (hydroxypropylcellulose) (HPC).

Several values for one entry are separate records, joined by “and”; a condition that tells them apart may be missing. Equal entries are not always repeated. Inconclusive results and toxic doses are left out.

As for `CN([NH-])C(=S)[S-].CN([NH-])C(=S)[S-].[Ni]`, the T/C by setting is: under setting [1], 100 % of control; (dose: 50.0 mg/kg/injection, schedule: Q04DX003 (ip), vehicle: saline with Tween-80) 100 % of control; under setting [2], 120 % of control; (dose: 100.0 mg/kg/injection, schedule: Q04DX003 (ip), vehicle: saline with Tween-80) 100 % of control; under setting [3], 101 % of control; (dose: 200.0 mg/kg/injection, schedule: Q04DX003 (ip), vehicle: Klucel (hydroxypropylcellulose) (HPC)) 117 % of control. The T/C under setting [4] is 123 % of control.

For the compound `NC1=NC(=O)C(N=O)C(=O)N1` (configuration not stated), the T/C was 99 % of control (dose: 100.0 mg/kg/injection, schedule: Q04DX002 (ip), vehicle: saline with Tween-80); 107 % of control (dose: 200.0 mg/kg/injection, schedule: Q04DX002 (ip), vehicle: saline with Tween-80); 106 % of control (dose: 400.0 mg/kg/injection, schedule: Q04DX002 (ip), vehicle: saline with Tween-80).

Take `CS(=O)(=O)OCC(F)(F)COS(C)(=O)=O`: the T/C is, setting by setting: under setting [5], 94 % of control; under setting [6], 100 % of control; under setting [7], 99 % of control.

As to `Cc1cc(C)n2ncnc2n1`, the T/C runs as follows: under setting [8], 105 % of control; under setting [9], 100 % of control; under setting [10], 100 % of control; under setting [11], 103 % of control.

Regarding `C[N+]1(C)CCC(C(=O)c2ccccc2)CC1`, the T/C is, setting by setting: (dose: 6.25 mg/kg/injection, schedule: Q01DX005 (ip), vehicle: saline) 108 % of control; (dose: 12.5 mg/kg/injection, schedule: Q01DX005 (ip), vehicle: saline) 96 % of control; (dose: 25.0 mg/kg/injection, schedule: Q01DX005 (ip), vehicle: saline) 95 % of control.

With `COc1ccc(C(C#N)N2CCCC2)cc1` (configuration not stated), the T/C was 100 % of control (dose: 6.25 mg/kg/injection, schedule: Q04DX003 (ip), vehicle: other) and 100 % of control (dose: 12.5 mg/kg/injection, schedule: Q04DX003 (ip), vehicle: other).

Turning to `O=c1ccncn1C1OC(CO)C(O)C1O` (configuration not stated), the T/C (dose: 60.0 mg/kg/injection, schedule: Q01DX005 (ip), vehicle: saline) was 103 % of control; the T/C (dose: 120.0 mg/kg/injection, schedule: Q01DX005 (ip), vehicle: saline) was 102 % of control; the T/C (dose: 240.0 mg/kg/injection, schedule: Q01DX005 (ip), vehicle: saline) was 110 % of control.

With `CCOC(=O)C1(c2ccccc2)CCN(c2c3ccccc3nc3ccccc23)CC1`, the T/C runs as follows: (dose: 25.0 mg/kg/injection, schedule: Q04DX003 (ip), vehicle: Klucel (hydroxypropylcellulose) (HPC)) 112 % of control; under setting [1], 111 % of control; (dose: 100.0 mg/kg/injection, schedule: Q04DX003 (ip), vehicle: Klucel (hydroxypropylcellulose) (HPC)) 111 % of control and 115 % of control.

`CC(C)N1CC(CCO)C(c2ccccc2)(c2ccccc2)C1` (configuration not stated): the T/C (dose: 50.0 mg/kg/injection, schedule: Q01DX009 (ip), vehicle: Klucel (hydroxypropylcellulose) (HPC)) was 99 % of control; the T/C (dose: 100.0 mg/kg/injection, schedule: Q01DX009 (ip), vehicle: Klucel (hydroxypropylcellulose) (HPC)) is 97 % of control; the T/C (dose: 200.0 mg/kg/injection, schedule: Q01DX009 (ip), vehicle: Klucel (hydroxypropylcellulose) (HPC)) was 106 % of control.

As for `NCc1ccc(Cl)c(Cl)c1`, the T/C was 110 % of control and 116 % of control (dose: 6.25 mg/kg/injection, schedule: Q01DX009 (ip), vehicle: saline); 104 % of control and 107 % of control under setting [8]; 100 % of control and 103 % of control under setting [9]; 101 % of control and 104 % of control under setting [10]; 103 % of control and 109 % of control under setting [11].

On to `COC1NC(=S)N(C2CCCCC2)C1(C)C` (configuration not stated), for which the T/C by setting is: (dose: 50.0 mg/kg/injection, schedule: Q01DX009 (ip), vehicle: suspension in saline) 97 % of control; (dose: 100.0 mg/kg/injection, schedule: Q01DX009 (ip), vehicle: suspension in saline) 97 % of control; (dose: 200.0 mg/kg/injection, schedule: Q01DX009 (ip), vehicle: suspension in saline) 100 % of control.

For the compound `C=C(C)n1c(=O)[nH]c2ccccc21`, the T/C reads like this: under setting [10], 87 % of control; under setting [11], 87 % of control; (dose: 200.0 mg/kg/injection, schedule: Q01DX009 (ip), vehicle: saline) 89 % of control.

Take `Cc1[nH]oc(=O)c1C(=O)c1ccccc1`: the T/C runs as follows: under setting [5], 95 % of control; under setting [6], 91 % of control; under setting [7], 91 % of control.

In the case of `COc1ccc2[nH]c3ccc4cc[n+](CCN5CCC(C6CCN(CC[n+]7ccc8ccc9[nH]c%10ccc(OC)cc%10c9c8c7)CC6)CC5)cc4c3c2c1`, the T/C reads like this: (dose: 1.0 mg/kg/injection, schedule: Q01DX005 (ip), vehicle: water) 165 % of control; (dose: 1.56 mg/kg/injection, schedule: Q01DX005 (ip), vehicle: Klucel (hydroxypropylcellulose) (HPC)) 159 % of control and 160 % of control; (dose: 2.0 mg/kg/injection, schedule: Q01DX005 (ip), vehicle: water) 160 % of control and 170 % of control; (dose: 3.12 mg/kg/injection, schedule: Q01DX005 (ip), vehicle: Klucel (hydroxypropylcellulose) (HPC)) 150 % of control and 166 % of control; (dose: 4.0 mg/kg/injection, schedule: Q01DX005 (ip), vehicle: water) 161 % of control and 182 % of control; (dose: 6.25 mg/kg/injection, schedule: Q01DX005 (ip), vehicle: Klucel (hydroxypropylcellulose) (HPC)) 167 % of control and 169 % of control. Moreover, the T/C runs as follows: (dose: 6.25 mg/kg/injection, schedule: Q01DX005 (ip), vehicle: other) 161 % of control; (dose: 8.0 mg/kg/injection, schedule: Q01DX005 (ip), vehicle: water) 163 % of control and 173 % of control and 191 % of control; (dose: 12.5 mg/kg/injection, schedule: Q01DX005 (ip), vehicle: Klucel (hydroxypropylcellulose) (HPC)) 179 % of control and 201 % of control; (dose: 12.5 mg/kg/injection, schedule: Q01DX005 (ip), vehicle: other) 193 % of control; (dose: 16.0 mg/kg/injection, schedule: Q01DX005 (ip), vehicle: water) 160 % of control and 190 % of control and 221 % of control; (dose: 25.0 mg/kg/injection, schedule: Q01DX005 (ip), vehicle: Klucel (hydroxypropylcellulose) (HPC)) 179 % of control and 200 % of control and 212 % of control. In addition, the T/C was 175 % of control and 204 % of control (dose: 25.0 mg/kg/injection, schedule: Q01DX005 (ip), vehicle: other); 167 % of control and 185 % of control and 223 % of control (dose: 32.0 mg/kg/injection, schedule: Q01DX005 (ip), vehicle: water); 160 % of control and 224 % of control and 255 % of control under setting [12]; 153 % of control and 160 % of control (dose: 50.0 mg/kg/injection, schedule: Q01DX005 (ip), vehicle: other); 193 % of control under setting [13]; 112 % of control under setting [14].

Consider `CS(=O)(=O)Nc1ccc(Oc2c3ccccc3nc3ccccc23)cc1`, for which the T/C under setting [2] is 91 % of control, the T/C under setting [3] was 92 % of control and the T/C under setting [4] was 90 % of control.

Regarding `CC(C)C[C@H]1C(=O)N2CCC[C@H]2[C@]2(O)O[C@](NC(=O)[C@@H]3C=C4c5cccc6[nH]c(Br)c(c56)C[C@H]4N(C)C3)(C(C)C)C(=O)N12`, the T/C reads like this: (dose: 50.0 mg/kg/injection, schedule: Q01DX009 (ip), vehicle: saline with Tween-80) 100 % of control; (dose: 100.0 mg/kg/injection, schedule: Q01DX009 (ip), vehicle: saline with Tween-80) 100 % of control; (dose: 200.0 mg/kg/injection, schedule: Q01DX009 (ip), vehicle: saline with Tween-80) 100 % of control.

On to `CCOC(=O)C1CN(C(=O)OCC)CCC1NC(C)=O` (configuration not stated), for which the T/C by setting is: (dose: 60.0 mg/kg/injection, schedule: Q01DX005 (ip), vehicle: Klucel (hydroxypropylcellulose) (HPC)) 102 % of control; (dose: 120.0 mg/kg/injection, schedule: Q01DX005 (ip), vehicle: Klucel (hydroxypropylcellulose) (HPC)) 96 % of control; (dose: 240.0 mg/kg/injection, schedule: Q01DX005 (ip), vehicle: Klucel (hydroxypropylcellulose) (HPC)) 98 % of control.

Turning to `CCOC(=O)Nc1ccc(S(=O)(=O)c2ccc(Nc3ccnc4cc(Cl)ccc34)cc2)cc1`, the T/C reads like this: under setting [12], 94 % of control; under setting [13], 98 % of control; under setting [14], 91 % of control.

Turning to `Cc1c2c(cc3c4ccccc4n(C)c13)C(=O)NC2=O`, the T/C under setting [5] is 91 % of control and the T/C under setting [6] was 90 % of control.
